Results on one molecule are retold here after ChEMBL document CHEMBL5726543, “Glucocerebrosidase modulators and uses thereof” (2017).

Structures are written as SMILES.

The assay has as its target T1, Lysosomal acid glucosylceramidase (Homo sapiens, UniProt P04062).
T1 sequence (P04062 whole entry): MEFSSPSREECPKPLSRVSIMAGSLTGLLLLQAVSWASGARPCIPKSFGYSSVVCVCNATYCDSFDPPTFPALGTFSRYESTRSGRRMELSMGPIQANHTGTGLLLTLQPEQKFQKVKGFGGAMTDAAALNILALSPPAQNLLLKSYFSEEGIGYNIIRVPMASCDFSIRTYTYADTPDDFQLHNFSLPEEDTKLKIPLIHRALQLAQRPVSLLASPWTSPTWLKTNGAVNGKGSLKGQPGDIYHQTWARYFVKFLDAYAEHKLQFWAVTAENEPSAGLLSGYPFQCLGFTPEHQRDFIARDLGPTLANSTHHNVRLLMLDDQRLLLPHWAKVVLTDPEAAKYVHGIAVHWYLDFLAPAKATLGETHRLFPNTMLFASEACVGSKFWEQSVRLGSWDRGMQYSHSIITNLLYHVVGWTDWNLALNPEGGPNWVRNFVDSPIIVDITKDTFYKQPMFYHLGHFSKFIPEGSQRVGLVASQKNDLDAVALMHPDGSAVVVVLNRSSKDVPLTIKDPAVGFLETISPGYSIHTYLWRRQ
Description: The reaction solution consisted of 25 μL of 6 mM 4-methylumbelliferone-β-D glucopyranoside in 10% DMSO in the same buffer, 12.5 μL of enzyme and 12.5 μL of various concentrations of test compound diluted in buffer. […] The reaction was initiated by addition of enzyme and allowed to proceed for 20 min at 37° C. to assess GCase activity. […] IC50 values were determined by fitting the data to a log [inhibitor concentration] versus response curve using GraphPad Prism.

Regarding `CCCC1(CCC)NC[C@@H](O)[C@H](O)[C@H]1CO`, the affinity corresponds to a Ki of 1400 nM.
